Measurements taken from patent US11896649B2, “Methods and pharmaceutical compositions for the treatment of post-operative cognitive dysfunction” (INSERM (INSTITUT NATIONAL DE LA SANTE ET DE LA RECHERCHE …, priority 2016, dated 2024).

Tests used:
IL-6 mRNA = settings: fractured mice, tissues collected 72 hours after fracture; FIG. 3b
Method: (§1) All mice were anaesthetized with 2-3% sevoflurane. Adequate anesthesia was ascertained by an absent pedal withdrawal reflex after hard pinching of the toe. Closed tibial fracture was performed as previously described (Minville et al 2008). Briefly, after antiseptic preparation of the right paw with povidone-iodine, a unilateral closed fracture was produced in the right tibia using a specially designed fracture apparatus (blunt guillotine). For the intramedullary pinning using a sterile technique, a hole was made above the tibial tuberosity per-cutaneously using a 27 G needle (BD Microlance—27G ¾L 19 mm). Then, the needle was directed straight into the medullary canal. By rotating the needle, the canal was reamed to 5 mm up to the ankle joint. The end of the needle was cut as short as possible so that the skin could roll over and covers it. No suture was performed. The mouse was then placed with the leg on the anvil in order to line up the blunt guillotine with the proximal third of the tibia. A 300 g weight was decreased from a height of 9 to 10 cm, fracturing the tibia shaft.
(§2) Apelin administration (ip, 0.5 umol/kg, Bachem) has been performed 1 hour before fracture and daily during the 15 consecutive days.

TNFa mRNA = settings: fractured mice, tissues collected 72 hours after fracture; FIG. 3a
Method: as §1, §2

fractured mice [1] = test system: fractured mice
Method: as §1, §2

fractured mice [2] = settings: 20 month old mice, i.p. apelin 0.5 nmol/kg before and during 3 days after the fracture, tested after 3 days; FIG. 4
Method: FIG. 4: Percentage of freezing in aged mice. Twenty month old male C57B16/j mice were fractured with (fracture apelin) or without (fracture PBS) an i.p treatment of apelin (0.5 nmol/kg) before and during 3 days after the fracture. After 3 days, animal hippocampal memory was tested by fear conditioning test. N=6 to 10, *p<0.05 compared to control.
To test the long-term memory and learning abilities, a fitness test to fear (Fear Conditioning Test) was used.
During the learning session, this test combines a painful and anxiety-producing event (2 short electrical discharges 0.3 mA 2 s on the legs) in an environmental context (floor cage with metal grills, washed several times a day with an alcoholic solution), visual (compound walls of black and white stripes, and white light patterns on the walls of the room) and sound (each discharge is preceded by a 80 dB sound 20 seconds). The learning phase lasted 4 minutes 25 seconds.
In the context of test sessions, conducted in the 3rd postoperative day, the animal was reintroduced in the same cage for 4 minutes. The context was the same but without sound stimulation or pain stimulus. […] Operator who ignored the treatment received by each animal evaluated the freezing time of each animal. […]

Substance: apelin
- Hippocampus IL-6 mRNA expression (IL-6 mRNA): avoid IL-6 increase
- Hematoma TNFa mRNA expression (TNFa mRNA): strong decreased
- Pain and nociception measured by Von Frey technique (fractured mice [1]; apelin ip 0.5 umol/kg 1 hour before fracture and daily, tested at day 1, 5 and 15 after fracture, FIG. 1a): significantly decreased
- Pain and nociception measured by Hargreave's technique (fractured mice [1]; apelin ip 0.5 umol/kg 1 hour before fracture and daily, tested at day 1, 5 and 15 after fracture, FIG. 1b): significantly decreased
- Freezing rate in non-operated mice (fractured mice [1]; non-operated mice treated by apelin, FIG. 2): did not display change
- Freezing rate in operated mice, compared to operated mice receiving saline injections (fractured mice [1]; operated mice, daily injection of apelin, day 3 after fracture, FIG. 2): increased
- Hippocampal memory (percentage of freezing) in aged mice after fracture (fractured mice [2]): do not exhibit hippocampal memory failure
